Results reported in patent US20230265157A1, “MHC MULTIMER EXPRESSION CONSTRUCTS AND USES THEREOF” (priority 2020, published 2023).

System: WT-1-specific T cells
Experiment: Specific cell staining / titration on WT-1-specific T cells
Type: cell-based
Conditions: untreated, digested and WT-1-exchanged tetramers at 1 nM and 20 nM
Source text: The amino acid sequence of the Y84A HLA alpha chain is shown in SEQ ID NO: 321. This mutation is known in the art to stabilize binding of the tethered peptide by reducing steric conflict with the peptide linker.

Y84A variant of the A*02:01 tetramer
staining of NLV- and WT-1-specific CD8+ T cells: converting NLV reactivity to WT-1 reactivity
